In US7700522B2, “α-Oxygenated or α-thiolated carboxylic acid phenethylamide derivatives” (Syngenta Crop Protection, Inc., priority 2001, dated 2010):

Key:
Format in all cases: in vivo
[1] = test system: Plasmopara viticola; experiment: D-1a residual-protective action against Plasmopara viticola on vines; details: test D-1a, vine seedlings, sprayed 24 hours before infection, untreated plants attack 80-100%, read-out: inhibit fungal infestations
Procedure: (§1) D-1: Action Against Plasmopara Viticola on Vines
(§2) a) Residual-protective Action
Vine seedlings are sprayed at the 4- to 5-leaf stage with a spray mixture (0.02% active ingredient) prepared from a wettable powder formulation of the test compound. After 24 hours, the treated plants are infected with a sporangia suspension of the fungus. Fungus infestation is evaluated after incubation for 6 days at 95-100% relative humidity and +20° C.

[2] = test system: Plasmopara viticola; experiment: D-1b residual-curative action against Plasmopara viticola on vines; details: test D-1b, vine seedlings, sprayed 24 hours after infection, untreated plants attack 80-100%, read-out: inhibit fungal infestations
Procedure: as §1
b) Residual-curative Action
Vine seedlings are infected at the 4- to 5-leaf stage with a sporangia suspension of the fungus. After incubation for 24 hours in a humidity chamber at 95-100% relative humidity and +20° C., the infected plants are dried and sprayed with a spray mixture (0.02% active ingredient) prepared from a wettable powder formulation of the test compound. After the spray coating has dried, the treated plants are placed in the humidity chamber again. Fungus infestation is evaluated 6 days after infection.

[3] = test system: Phytophthora; experiment: D-2a residual-protective action against Phytophthora on tomato plants; details: test D-2a, sprayed 48 hours before infection, untreated plants attack 80-100%, read-out: inhibit fungal infestations
Procedure: (§3) D-2: Action Against Phytophthora on Tomato Plants
as §2
After a cultivation period of 3 weeks, tomato plants are sprayed with a spray mixture (0.02% active ingredient) prepared from a wettable powder formulation of the test compound. After 48 hours, the treated plants are infected with a sporangia suspension of the fungus. Fungus infestation is evaluated after incubation of the infected plants for 5 days at 90-100% relative humidity and +20° C.

[4] = test system: Phytophthora; experiment: D-3b systemic action against Phytophthora on potato plants; details: test D-3b, potato plants (Bintje), soil watering 48 hours before infection, untreated plants attack 80 to 100%, read-out: inhibit fungal infestations
Procedure: (§4) D-3: Action Against Phytophthora on Potato Plants
2-3 week old potato plants (Bintje variety) are watered with a spray mixture (0.02% active ingredient based on the volume of the soil) prepared from a wettable powder formulation of the test compound. […] After 48 hours, the treated plants are infected with a sporangia suspension of the fungus. Fungus infestation is evaluated after incubation of the infected plants for 4 days at 90-100% relative humidity and +20° C.

[5] = test system: Phytophthora; experiment: D-3a residual-protective action against Phytophthora on potato plants; details: test D-3a, potato plants (Bintje), sprayed 48 hours before infection, untreated plants attack 80 to 100%, read-out: inhibit fungal infestations
Procedure: as §4, §2
2-3 week old potato plants (Bintje variety) are sprayed with a spray mixture (0.02% active ingredient) prepared from a wettable powder formulation of the test compound. After 48 hours, the treated plants are infected with a sporangia suspension of the fungus. Fungus infestation is evaluated after incubation of the infected plants for 4 days at 90-100% relative humidity and +20° C.

[6] = test system: Phytophthora; experiment: D-2b systemic action against Phytophthora on tomato plants; details: test D-2b, soil watering 96 hours before infection, untreated plants attack 80-100%, read-out: inhibit fungal infestations
Procedure: as §3
After a cultivation period of 3 weeks, tomato plants are watered with a spray mixture (0.02% active ingredient based on the volume of the soil) prepared from a wettable powder formulation of the test compound. […] After 96 hours, the treated plants are infected with a sporangia suspension of the fungus. Fungus infestation is evaluated after incubation of the infected plants for 4 days at 90-100% relative humidity and +20° C.

Measured: inhibition at 200 ppm

C#CCOc1ccc(CCNC(=O)C(Cc2ccc(Br)cc2)OCC#C)cc1OC (stereo not shown) [Compound E1.15, 3-(4-bromo-phenyl)-N-[2-(3-methoxy-4-prop-2-ynyloxy-phenyl)-ethyl]-2-prop-2-ynyloxy-propionamide]
80 to 100%: all assays above

C#CCOc1ccc(CCNC(=O)C(Cc2ccc(Cl)cc2)OCC#C)cc1OC (stereo not shown) [Compound E1.10, 3-(4-chloro-phenyl)-N-[2-(3-methoxy-4-prop-2-ynyloxy-phenyl)-ethyl]-2-prop-2-ynyloxy-propionamide]
80 to 100%: all assays above

C#CCOc1ccc(CCNC(=O)C(Cc2ccccc2)OCC#C)cc1OC (stereo not shown) [Compound E1.03, N-[2-(3-methoxy-4-prop-2-ynyloxy-phenyl)-ethyl]-3-phenyl-2-prop-2-ynyloxy-propionamide]
80 to 100%: all assays above

C#CCOc1ccc(CCNC(=O)C(Cc2ccc(F)cc2)OCC#C)cc1OC (stereo not shown) [Compound E1.06, 3-(4-fluoro-phenyl)-N-[2-(3-methoxy-4-prop-2-ynyloxy-phenyl)-ethyl]-2-prop-2-ynyloxy-propionamide]
80 to 100%: [3] | [4] | [5] | [6]

C#CCOc1ccc(CCNC(=O)C(Cc2ccc(CC)cc2)OCC#C)cc1OC (stereo not shown) [Compound E1.22, 3-(4-ethyl-phenyl)-N-[2-(3-methoxy-4-prop-2-ynyloxy-phenyl)-ethyl]-2-prop-2-ynyloxy-propionamide]
80 to 100%: [1] | [2] | [3] | [6]

C#CCOc1ccc(CCNC(=O)C(Cc2ccc(C)cc2)OCC#C)cc1OC (stereo not shown) [Compound E1.18, N-[2-(3-methoxy-4-prop-2-ynyloxy-phenyl)-ethyl]-2-prop-2-ynyloxy-3-p-tolyl-propionamide]
80 to 100%: [1] | [2]
